Data from patent US8796259B2, “N3-heteroaryl substituted triazoles and N5-heteroaryl substituted triazoles useful as axl inhibitors” (Rigel Pharmaceuticals, Inc., priority 2006, dated 2014).

The molecules below were run against T1, Axl (Homo sapiens, UniProt P30530) (assay: Phospho-Akt in-cell Western assay (inhibition of Axl activity, Axl-antibody cross-linking stimulation)). Conditions: Hela cells, phospho-Akt readout; compounds of formula (Ia), Table 1.
T1 construct: endogenous in cells; host or cells: HeLa cells
T1 sequence (P30530 26-894): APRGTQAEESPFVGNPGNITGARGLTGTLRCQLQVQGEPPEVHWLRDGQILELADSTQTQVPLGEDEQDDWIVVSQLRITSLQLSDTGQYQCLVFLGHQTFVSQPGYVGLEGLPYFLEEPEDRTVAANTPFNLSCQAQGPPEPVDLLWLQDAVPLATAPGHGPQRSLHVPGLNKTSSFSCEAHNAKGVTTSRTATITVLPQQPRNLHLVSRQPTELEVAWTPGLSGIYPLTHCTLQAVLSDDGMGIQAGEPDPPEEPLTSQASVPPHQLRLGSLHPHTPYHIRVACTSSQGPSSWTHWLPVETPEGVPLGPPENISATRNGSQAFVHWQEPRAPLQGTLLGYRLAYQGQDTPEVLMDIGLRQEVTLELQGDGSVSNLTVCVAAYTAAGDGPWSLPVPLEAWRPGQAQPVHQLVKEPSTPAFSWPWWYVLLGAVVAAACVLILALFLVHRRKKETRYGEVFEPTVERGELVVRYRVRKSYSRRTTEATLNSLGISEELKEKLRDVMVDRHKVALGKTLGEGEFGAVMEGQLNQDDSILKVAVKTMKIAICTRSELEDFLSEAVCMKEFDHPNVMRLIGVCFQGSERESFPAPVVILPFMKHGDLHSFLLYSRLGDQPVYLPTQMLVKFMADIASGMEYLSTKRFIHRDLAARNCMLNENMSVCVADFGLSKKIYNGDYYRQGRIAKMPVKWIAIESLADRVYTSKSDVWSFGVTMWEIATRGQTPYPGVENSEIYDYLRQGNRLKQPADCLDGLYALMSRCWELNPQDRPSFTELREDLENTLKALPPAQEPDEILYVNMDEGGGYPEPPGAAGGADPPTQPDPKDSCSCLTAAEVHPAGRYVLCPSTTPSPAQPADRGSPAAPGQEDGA
Assay type: cell-based
Procedure, shortened: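 HeLa cells on poly-L-lysine were starved 24 h in 0.5% FCS/DMEM with 500 ng/mL Axl/Fc, pre-treated with compound 1 h at 37 °C, then stimulated 5 min by cross-linked mouse anti-Axl/biotin anti-mouse antibody clusters. After formaldehyde fixation, phospho-Akt was detected by rabbit anti-phospho-Akt and HRP secondary with chemiluminescence read-out.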
Work on Nc1nc(Nc2ccc3c(c2)OCCO3)nn1-c1ccccc1 [compound 3, N^3-(2,3-dihydrobenzo [b][1,4]dioxin-6-yl)-1-phenyl-1H-1,2,4-triazole-3,5-diamine] yielded an IC50 greater than 20000 nM.
Molecule COc1cc2ncnc(-n3nc(Nc4ccc(Br)nc4)nc3NC(=NC#N)Nc3ccc(Br)nc3)c2cc1OC [compound 58, 1-(6,7-dimethoxy-quinazoline-4-yl)-N^3-(6-bromopyridin-3-yl)-5-(3-(6-bromopyridin-3-yl)-2-cyano-guanadino)-1H-1,2,4-triazole-3-amine] has an IC50 of 1000 to 10000 nM.
Molecule Cc1csc2c(-n3nc(Nc4ccc(C5CCN(C6CC7CCC6C7)CC5)nc4)nc3N)nc(Cl)nc12 (stereo not shown) [compound 83, 1-(2-chloro-7-methylthieno [3,2-d]pyrimidine-4-yl)-N^3-(6-(1-bicyclo[2.2.1]heptan-2-ylpiperidin-4-yl)pyridine-3-yl)-1H-1,2,4-triazole-3,5-diamine] has an IC50 of less than 1000 nM.
Molecule Cc1csc2c(-n3nc(Nc4ccc(C=CCN5CCCC5)nc4)nc3N)ncnc12 [compound 119, 1-(7-methylthieno [3,2-d]pyrimidin-4-yl)-N^3-(2-(3-(pyrrolidin-1-yl)propen-1-yl)pyridin-5-yl)-1H-1,2,4-triazole-3,5-diamine] has an IC50 of less than 1000 nM.
Cc1csc2c(-n3nc(Nc4cnc5c(c4)CN(C)CC5)nc3N)nc(Cl)nc12 [compound 14, 1-(2-chloro-7-methylthieno [3,2-d]pyrimidine-4-yl)-N^3-(6-methyl-5,6,7,8-tetrahydro-1,6-naphthyridin-3-yl)-1H-1,2,4-triazole-3,5-diamine] was tested, and the IC50 was greater than 20000 nM.
In the case of COc1cc2ncnc(-n3nc(Nc4ccc(C=CCN5CCN(C(C)C)CC5)nc4)nc3N)c2cc1OC [compound 113, 1-(6,7-dimethoxy-quinazoline-4-yl)-N^3-(2-(3-(4-isopropyl-piperazin-1-yl)propen-1-yl)pyridine-5-yl)-1H-1,2,4-triazole-3,5-diamine], the IC50 is reported as less than 1000 nM.
Cc1csc2c(-n3nc(Nc4cnc5c(c4)CN(C(=O)C4CCN(C)CC4)CC5)nc3N)ncnc12 [compound 96, 1-(7-methylthieno [3,2-d]pyrimidin-4-yl)-N^3-(6-(1-methyl-piperidin-4-yl)carbonyl-5,6,7,8-tetrahydro-1,6-naphthyridin-3-yl)-1H-1,2,4-triazole-3,5-diamine] was tested, and the IC50 was less than 1000 nM.
For Cc1csc2c(-n3nc(Nc4cnc(N5CCC(CN6CCCCC6)CC5)nc4)nc3N)nc(Cl)nc12 [compound 131, 1-(2-chloro-7-methylthieno [3,2-d]pyrimidin-4-yl)-N^3-(2-(4-(piperidin-1-ylmethyl)piperidin-1-yl)pyrimidin-5-yl)-1H-1,2,4-triazole-3,5-diamine], the IC50 was less than 1000 nM.
Cc1csc2c(-n3nc(Nc4ccc(N5CCC(N6CCCCC6)CC5)nc4)nc3N)nc(Cl)nc12 [compound 28, 1-(2-chloro-7-methylthieno [3,2-d]pyrimidine-4-yl)-N^3-(6-(4-piperidin-1-ylpiperidin-1-yl)pyridine-3-yl)-1H-1,2,4-triazole-3,5-diamine] gave an IC50 of less than 1000 nM.
CCN(CC)CC1CCCN1c1ccc(Nc2nc(N)n(-c3ncnc4cc(OC)c(OC)cc34)n2)cn1 (stereo not shown) [compound 39, 1-(6,7-dimethoxy-quinazoline-4-yl)-N^3-(6-(2-diethyl-aminomethyl-pyrrolidin-1-yl)pyridin-3-yl)-1H-1,2,4-triazole-3,5-diamine] gave an IC50 of less than 1000 nM.
For Cc1csc2c(-n3nc(Nc4ccc(N5CCN(CC6CC6)[C@@H](C)C5)nc4)nc3N)ncnc12 [compound 116, 1-(7-methyl-thieno[3,2-d]pyrimidin-4-yl)-N^3-(2-(4-cyclo-propylmethyl-3-(S)-methyl-piperazin-1-yl)pyridin-5-yl)-1H-1,2,4-triazole-3,5-diamine], the IC50 was less than 1000 nM.
Work on Cc1csc2c(-n3nc(Nc4cnc(N5CCN([C@H]6CC7CCC6C7)CC5)c(Cl)c4)nc3N)ncnc12 (stereo partly drawn) [compound 110, 1-(7-methylthieno [3,2-d]pyrimidin-4-yl)-N^3-(2-(4-(2S)-bicyclo[2.2.1]heptan-2-ylpiperazin-1-yl)-3-chloropyridin-5-yl)-1H-1,2,4-triazole-3,5-diamine] yielded an IC50 of 10000 to 20000 nM.
Cc1csc2c(-n3nc(Nc4cnc5c(c4)CC(NC4CCCCC4)CC5)nc3N)nc(Cl)nc12 (stereo not shown) [compound 100, 1-(2-chloro-7-methylthieno [3,2-d]pyrimidin-4-yl)-N^3-(6-cyclohexyl-amino-5,6,7,8-tetrahydro-quinolin-3-yl)-1H-1,2,4-triazole-3,5-diamine] showed an IC50 of less than 1000 nM.
Molecule Cc1csc2c(-n3nc(Nc4cnc5c(c4)CC(NC4CCCC4)CC5)nc3N)ncnc12 (stereo not shown) [compound 99, 1-(7-methylthieno [3,2-d]pyrimidin-4-yl)-N^3-(6-cyclopentyl-amino-5,6,7,8-tetrahydro-quinolin-3-yl)-1H-1,2,4-triazole-3,5-diamine] has an IC50 of less than 1000 nM.
For COc1cc2ncnc(-n3nc(Nc4ccc(N5CCCN(C6CCCC6)CC5)nc4)nc3N)c2cc1OC [compound 11, 1-(6,7-dimethoxy-quinazoline-4-yl)-N^3-(6-(4-cyclopentyl-1,4-diazepan-1-yl)pyridin-3-yl)-1H-1,2,4-triazole-3,5-diamine], the IC50 was less than 1000 nM.
For Cc1cc(Nc2nc(N)n(-c3ncnc4c(C)csc34)n2)cnc1N1CCN([C@H]2CC3CCC2C3)CC1 (stereo partly drawn) [compound 111, 1-(7-methylthieno [3,2-d]pyrimidin-4-yl)-N^3-(2-(4-(2S)-bicyclo[2.2.1]heptan-2-ylpiperazin-1-yl)-3-methylpyridin-5-yl)-1H-1,2,4-triazole-3,5-diamine], the IC50 was less than 1000 nM.
In the case of Nc1nc(Nc2ccc3oc(CN4CCCC4)nc3c2)nn1-c1nccc2ccccc12 [compound 1, 1-(isoquinolin-1-yl)-N^3-(2-(pyrrolidin-1-ylmethyl)benzo [d]oxazol-5-yl)-1H-1,2,4-triazole-3,5-diamine], the IC50 is reported as 1000 to 10000 nM.
Work on Cc1cc(Nc2nc(N)n(-c3nc4ccccc4c4ccccc34)n2)cnc1N1CCC(N2CCCC2)CC1 [compound 43, 1-(phenanthridin-6-yl)-N^3-(6-(4-(pyrrolidin-1-yl)piperidin-1-yl)-5-methylpyridin-3-yl)-1H-1,2,4-triazole-3,5-diamine] yielded an IC50 of less than 1000 nM.
In the case of Cc1csc2c(-n3nc(Nc4cnc5c(c4)CC(N4CCN(C)CC4)CC5)nc3N)nc(Cl)nc12 (stereo not shown) [compound 66, 1-(2-chloro-7-methylthieno [3,2-d]pyrimidin-4-yl)-N^3-(6-(4-methyl-piperazin-1-yl)-5,6,7,8-tetrahydro-quinolin-3-yl)-1H-1,2,4-triazole-3,5-diamine], the IC50 is reported as less than 1000 nM.
In the case of COc1cc2ncnc(-n3nc(Nc4ccc(C=CCN5CCC(N(C)C)C5)nc4)nc3N)c2cc1OC (stereo not shown) [compound 79, 1-(6,7-dimethoxy-quinazoline-4-yl)-N^3-(6-(3-(3-(dimethyl-amino)pyrrolidin-1-yl)propenyl)pyridin-3-yl)-1H-1,2,4-triazole-3,5-diamine], the IC50 is reported as less than 1000 nM.
Work on Cc1cc(Nc2nc(N)n(-c3nnc(C)c4ccsc34)n2)cnc1N1CCN([C@H]2C[C@@H]3CC[C@H]2C3)CC1 [compound 112, 1-(4-methylthieno [3,2-d]pyridazine-7-yl)-N^3-(2-(4-(1S,2S,4R)-bicyclo[2.2.1]heptan-2-ylpiperazin-1-yl)-3-methylpyridin-5-yl)-1H-1,2,4-triazole-3,5-diamine] yielded an IC50 greater than 20000 nM.
Work on Cc1cc(Nc2nc(N)n(-c3nccc4occc34)n2)cnc1N1CCC(N2CCCC2)CC1 [compound 53, 1-(furo[3,2-c]pyridine-4-yl)-N^3-(6-(4-(pyrrolidin-1-yl)piperidin-1-yl)-5-methylpyridin-3-yl)-1H-1,2,4-triazole-3,5-diamine] yielded an IC50 of less than 1000 nM.
Cc1csc2c(-n3nc(Nc4ccc(N5CCN(CC6CC6)[C@@H](C)C5)nc4)nc3N)nc(Cl)nc12 [compound 117, 1-(2-chloro-7-methylthieno [3,2-d]pyrimidin-4-yl)-N^3-(2-(4-cyclopropyl-methyl-3-(S)-methyl-piperazin-1-yl)pyridin-5-yl)-1H-1,2,4-triazoie-3,5-diamine] showed an IC50 of less than 1000 nM.

Same assay, conditions: Hela cells, phospho-Akt readout; compounds of formula (Ib), Table 2
Work on Cc1cc(Nc2nc(N)nn2-c2nnc(C)c3ccsc23)cnc1N1CCN([C@H]2C[C@@H]3CC[C@H]2C3)CC1 [compound 132, 1-(4-methylthieno[2,3-d]pyridazin-7-yl)-N^5-(2-(4-(1S,2S,4R)-bicyclo[2.2.1]heptan-2-ylpiperazin-1-yl)-3-methylpyridin-5-yl)-1H-1,2,4-triazole-3,5-diamine] yielded an IC50 greater than 20000 nM.
With Cc1csc2c(-n3nc(N)nc3Nc3ccc(C=CCN4CCC(N5CCN(C)CC5)CC4)nc3)ncnc12 [compound 133, 1-(7-methylthieno[3,2-d]pyrimidin-4-yl)-N^5-(2-(3-(4-(4-methylpiperazin-1-yl)piperidin-1-yl)propen-1-yl)pyridin-5-yl)-1H-1,2,4-triazole-3,5-diamine] the IC50 was less than 1000 nM.
